# Columns and labels:
# [1] = Stability in C57BL/6 K2EDTA plasma at 22° C. over 1 hour by LC; format: in vitro ADME, mouse; details: for Remaining %: mouse plasma, 2,000 ng/mL, 22°C
# Description: Tucaresol, Compound B02, Compound C01, Compound C02-1, and Compound C02 were dosed once, by IV bolus (3 mg/kg in 20% hydroxyprophyl-13-cyclodextrin with 1 eq NaOH) or PO (10 mg/kg in 1% carboxymethylcellulose/0.1% tween-80 in water), to non-fasted male C57BL/6 mice. Animals were bled from the dorsal metatarsal vein (from the heart for 24 hour time point) for K2-EDTA plasma 0.083 (for IV only), 0.25, 0.5, 1, 2, 4, 8, and 24 hours after dosing. The plasma concentration of the dosed tucaresol or compound were measured by LC/MS/MS (I-CMS-8060 instrument for MS). PK parameters were then calculated with WinNonlin 6.1. For Compounds C01, CO2 and CO2-1, stability in C57BL/6 K2EDTA plasma was also evaluated at 22° C. over 1 hour by utilizing LC.
# Compounds C01 and C02-1 are unstable at 22° C.
# [2] = tested on: MC-38 tumor cells; assay: In vivo efficacy in subcutaneous MC-38 murine colorectal cancer model (Example 9); set-up: species or system C57BL/6 mice
# Description: This study evaluated preclinically the in vivo therapeutic efficacy of Compound C02 as a single agent and in combination with anti-PD-1 antibody in the treatment of subcutaneous MC-38 colorectal cancer models in C57BL/6 mice.
# Treatment regimen may be changed per BW loss or other adverse effect according to rules set forth and/or client requests. When dosed on the same day, vehicle for CO2 was administered about 1-2 hours after the dosing of anti-PD1 or control IgG.
# The […] tumor cells were maintained in vitro as a monolayer culture in RPMI-1640 supplemented with 10% fetal bovine serum at 37° C. in an atmosphere of 5% CO2 in air. The cells in an exponential growth phase were harvested and counted for tumor inoculation. […]
# After tumor cells inoculation, the animals were checked daily for morbidity and mortality. During routine monitoring, the animals were checked for any effects of tumor growth and treatments on behavior such as mobility, food and water consumption, body weight gain/loss (body weights will be measured twice per week after randomization), eye/hair matting and any other abnormalities. Mortality and observed clinical signs were recorded for individual animals in detail. […]
# Rectal temperature was recorded without anaesthesia on the day prior to the first dosing and on the day after the last oral dose.
# [3] = tested on: MC38 tumor cells; assay: Tumor volume in subcutaneous syngeneic colorectal cancer model MC38 (Example 10); format: in vivo,  mice
# Description: MC38 tumor cells were maintained in vitro with DMEM medium supplemented with 10% fetal bovine serum at 37° C. in an atmosphere of 5% CO2 in air. The cells in exponential growth phase were harvested and quantitated by cell counter before tumor inoculation. Each mouse was inoculated subcutaneously in the right lower flank with 1×10^6 MC38 tumor cells in 0.1 ml of PBS for tumor development.
# The randomization was started when the mean tumor size reached approximately 145 mm^3. 108 mice were enrolled in the study. All animals were randomly allocated to 9 study groups. Randomization by tumor volume was performed based on “Matched distribution” method/ “Stratified” method (StudyDirector™ software, version 3.1.399.19)/randomized block design.
# Tumor volumes were measured three times a week after randomization in two dimensions using a caliper, and the volume was expressed in mm^3 using the formula: V=(L×W×W)/2, where V is tumor volume, L is tumor length (the longest tumor dimension) and W is tumor width (the longest tumor dimension perpendicular to L). Dosing as well as tumor and body weight measurements were conducted in a Laminar Flow Cabinet. The body weights and tumor volumes were measured by using StudyDirector™ software (version 3.1.399.19).
# The treatment was initiated following randomization.
# Tumor growth inhibition (TGI): TGI% is an indication of antitumor activity, and expressed as: TGI (%)=100×(1−T/C). T and C are the mean tumor volume (or weight) of the treated and control groups, respectively, on a given day. Statistical analysis of the difference in mean tumor volume among the groups was conducted using the method time to survival event/euthanasia. Individual mice were euthanized when tumor volume exceeded 3000mm^3. The study was ultimately terminated at Day 36.
# To compare tumor volumes of different groups at a pre-specified day, Bartlett's test was used to check the assumption of homogeneity of variance across all groups. When the p-value of Bartlett's test was >=0.05, one-way ANOVA was runto test overall equality of means across all groups. If the p-value of the one-way ANOVA was <0.05, was performed post hoc testing by running Tukey's HSD (honest significant difference) tests for all pairwise comparisons, and Dunnett's tests for comparing each treatment group with the vehicle group. When the p-value of Bartlett's test was <0.05, was run Kruskal-Wallis test to test overall equality of medians among all groups. If the p-value the Kruskal-Wallis test was <0.05, was performed post hoc testing by running Conover's non-parametric test for all pairwise comparisons or for comparing each treatment group with the vehicle group, both with single-step p-value adjustment.
# In addition, pairwise comparisons were performed without multiple comparison correction and reported nominal/uncorrected p-values directly from Welch's t-test or Mann-Whitney U test. Specifically, Bartlett's test was used to check the assumption of homogeneity of variance for a pair of groups. When the p-value of Bartlett's test was >0.05, Welch's t-test was run, otherwise Mann-Whitney U test was run, to obtain nominal p-values. Survival curves were compared between groups by logrank (Mantel-Cox) test.
# All statistical analyses had been done in R-a language and environment for statistical computing and graphics (version 3.3.1). All tests were two-sided unless otherwise specified, and p-values of <0.05 were regarded as statistically significant.
# Kaplan-Meier plot showing percent survival of mice treated with G1 to G9. A mouse whose tumor volume exceeded 3000 mm^3 was sacrificed and scored in the Kaplan-Meier plot. Tables 13.1 and 13.2 below describes the tumor growth inhibition with data collected over 24 days. Tables 14.1 and 14.2 below describes mean body weight.
compound,measurement,setting,value
O=Cc1c(OCc2ccc(C(=O)O)cc2)cccc1OC1O[C@H](CO)[C@@H](O)[C@H](O)[C@H]1O (stereo partly shown) [Compound C02],mouse plasma stability (in words),[1]; 22° C.,initial instability
same,Remaining %,[1]; 0 min,100%
same,Remaining %,[1]; 5 min,62.3%
same,Remaining %,[1]; 15 min,79.6%
same,Remaining %,[1]; 30 min,68.7%
same,Remaining %,[1]; 60 min,61.7%
same,level of starting at which the compound leveled off,"[1]; mouse plasma, 22° C., through 1 hour",60-70%
same,time of treatment after which the benefits were especially apparent,"[2]; QDx5, as a monotherapy or in combination with anti-PD1",15 to 20 days
same,dose response of efficacy (in words),"[2]; QDx5 dosing, down to 10 mg/kg QDx5",inverse dose response relationship
same,antitumor efficacy of the combination (in words),"[3]; 20 mg/kg C02 (Group 4) against anti-PD1 alone (Group 3), FIG. 5A",significantly increased the antitumor efficacy of anti-PDA1 administered alone
same,Mean Tumor Volumes,[3]; Day 1,145 ± 5.46 mm^3
same,Mean Tumor Volumes,[3]; Day 4,215.49 ± 15.14 mm^3
same,Mean Tumor Volumes,[3]; Day 8,590.08 ± 59.54 mm^3
same,Mean Tumor Volumes,[3]; Day 10,1048.2 ± 89.19 mm^3
same,Mean Tumor Volumes,[3]; Day 12,1750.55 ± 154.11 mm^3
same,Mean Tumor Volumes,[3]; Day 15,2847.19 ± 242.97 mm^3
